# Reference: patent publication USRE50172E1, “In vitro maturation of a mammalian cumulus oocyte complex” (Vrije Universiteit Brussel, priority 2014, dated 2024)
# “Also recorded” adds a separate entry of the source. No end group written: not given here.
# How the values were obtained:
# Type in all cases: cell-based, mouse
# Immature COCs = assay: Meiotic arrest of immature COCs from small antral follicles, 48 hours culture
# Text: (§1) For the collection of immature COCs, compact COCs of the first wave of follicular development were collected from small antral follicles of pre-pubertal mice (19-21 days-old), without prior gonadotropin administration. For the collection of pre-ovulatory COCs (controls), compact COCs were collected by puncturing large antral follicles of pre-pubertal female mice (25-27 days-old) following 48 hrs of priming with 2,5IU 2.5 IU equine Chronic Gonadotropin (eCG, Folligon, Intervet, Oss, The Netherlands). Collection medium consisted of Leibovitz L-15, containing 10% Heat-inactivated Foetal Bovine Serum (FBS), 100lU/ml 100 IU/ml penicillin, 100 μg/ml streptomycin (all from Life Technologies, Gent, Belgium) and supplemented with 200 μM 3-Isobutyl-1-methylxanthine (IBMX; Sigma, Schnelldorf, Germany) to prevent meiosis reinitiation during the period of collection and pre culture handling.
# (§2) Basal culture medium for the culture of COCs (Pre-IVM and IVM phases) consisted of α-MEM, 2.5% FBS (both from Life Technologies, Gent, Belgium) and 5 ng/mL Insulin, 5 ug/mt ug/ml. Apo-Transferrin, 5 ng/mL Sodium selenite (All from Sigma, Schnelldorf, Germany).
# At specified time-points oocytes were mechanically freed from compact or expanded cumulus cells by using a mouth controlled fine bore glass pipette. Meiotic reinitiation was analyzed by assessing the nuclear maturational stage under an inverted microscope equipped with a Hoffman modulation contrast system (Nikon, Tokyo, Japan). Nuclear maturation was scored as GV (Germinal vesicle stage), GVBD (when GV non visible), PB (first polar body observed in perivitelline space) or DEG (when the oocyte was degenerated). […]
# Immature COCs were retrieved from small antral follicles of female mice aged 19-20 days-old and placed in culture for 48 hours in presence of 25 nM CNP-22 and presence or absence of 10 nM 17-β-estradiol; additionally the effects of the further addition of 2.5 or 5 mlU/mL mIU/ml FSH and/or 50 ng/mL GDF9 were evaluated.
# Pre-ovulatory COCs [1] = assay: Meiotic arrest of pre-ovulatory COCs cultured 18 hours with CNP-22 (Example 1)
# Text: as §1, §2
# (§3) At specified time-points oocytes were mechanically freed from compact or expanded cumulus cells by using a mouth controlled fine bore glass pipette. Meiotic reinitiation was analyzed by assessing the nuclear maturational stage under an inverted microscope equipped with a Hoffman modulation contrast system (Nikon, Tokyo, Japan). Nuclear maturation was scored as GV (Germinal vesicle stage), GVBD (when GV non visible), PB (first polar body observed in perivitelline space) or DEG (when the oocyte was degenerated).
# (§4) Pre-ovulatory COCs, retrieved from gonadotropin-primed mice (aged 26-27 days-old), were placed in culture, for 18 hours, in presence of 0 (Control), 1, 10, 100 nM CNP-22 and in combination with 4 ng/mL EGF.
# Pre-ovulatory COCs [2] = assay: EGFR-dependent meiotic resumption of pre-ovulatory COCs in presence of CNP-22 and EGF; details: for PB rate: 18 hours
# Text: as §1, §2
# For experiments involving IVM, recombinant Epidermal growth Factor (r-EGF) (Roche; Mannheim, Germany) and recombinant mouse Epiregulin (EREG) (R&D systems Europe; Oxon, United Kingdom) were used as ovulatory stimuli and the cultures lasted 18 hrs.
# as §3, §4
# Pre-ovulatory COCs, retrieved from gonadotropin-primed mice, were placed in culture in absence (controls) or presence of 25 nM CNP-22 4 ng/mL EGF, and meiotic maturation was assessed at 2, 4 and 6 hours. While meiotic resumption increased from 2 to 6 hours in the control group, few GVBDs were induced in the CNP-22 EGF treated group (≤11%), within the same period of time (FIG. 2A).
# Preovulatory COCs [3] = assay: Meiotic resumption after 18 hours, CNP-22 dose range (Example 4)
# Description: The materials and methods used in this further example are accordingly in common with the materials and methods used in Example 1. Cumulus-oocyte complexes from 24-26 day-old mice were isolated from in vivo grown antral follicles post 48 h equine Chronic Gonadotropin stimulation (eCG, Folligon, Intervet, Oss, The Netherlands). Mice were injected with 2.5 IU eCG when they were 22-24 days-old. Intact COCs with at least 2 layers of cumulus cells were put in culture for a period of 18 hours in presence of the following doses of CNP: • Control (No CNP)* • 0.1 nM** • 1 nM • 10 nM • 50 nM** • 100 nM • 1 μM**
# COCs were collected and cultured according to the previous dose experiments in mice, provided in the Example 1.
# Differences in the rate of oocyte meiotic resumption (per meiotic stage) were assessed by ANOVA followed by a Tukey's Multiple Comparison Test, p<0.01. Percentages data were transformed (arcsine) before performing statistical analysis.
# Oocyte meiotic arrest was confirmed by the presence of an intact germinal vesicle (GV) under the inverted microscope, […]
# [4] = tested on: COCs from early antral follicles; assay: Cumulus-oocyte connections (transzonal projections) after capacitation culture with CNP or PDE3 inhibitor (Example 2); details: 48 h culture, F-actin staining of zona pellucida, no FSH; listed as CNP
# Description: Basal culture medium for the culture of COCs (Pre-IVM and IVM phases) consisted of α-MEM, 2.5% FBS (both from Life Technologies, Gent, Belgium) and 5 ng/mL Insulin, 5 ug/mL Apo-Transferrin, 5 ng/mL Sodium selenite (All from Sigma, Schnelldorf, Germany). Capacitation medium consisted of basal medium supplemented with either 25 nM CNP or 1 μM Org9935 or 1 μM Cilostamide in combination with 10 nM E2 17-β-estradiol. CNP was obtained from Phoenix Europe (Karlsruhe, Germany), while Cilostamide was obtained from Enzo Life Sciences (Antwerpen, Belgium). Since the aim of the experiment was to make evident potential differences between CNP and PDE3-inhibitors, avoiding potential interference of FSH was crucial, therefore the latter was omitted from capacitation medium. When tested in the presence of FSH, the latter masked the effect of CNP on the connection between the oocyte and surrounding layers of cumulus cells, in having itself a contribution to said connection which is even apparent in the presence of a PDE3-inhibitor (data not shown). […]
# In FIG. 7 average pixel intensity was used as a tool to quantify positive actin staining (TZP) going through zona pellucida. […]
# Preovulatory COCs [5] = assay: Meiotic resumption after 18 hours, CNP-53 dose range (Example 5)
# Description: The materials and methods used in this further example are accordingly in common with the materials and methods used in Example 4 but for the use of CNP-53 instead. Cumulus-oocyte complexes from 24-25 day-old mice were isolated from in vivo grown antral follicles post 48 h eCG stimulation. Mice were injected with 2.5 IU eCG when they were 22-23 days-old. Intact COCs were put in culture for a period of 18 hours in presence of the following doses of CNP-53: • Control (No CNP)* • 0.1 nM • 1 nM • 10 nM • 50 nM • 100 nM • 1 μM • Control 25 nM CNP-22*
# *Two control conditions were included: 1) 25 nM CNP-22 (standard dose known and used in previous experiments to maintain meiotic arrest), 2) a control condition where CNP is not present in the culture media.
# Differences in the rate of oocyte meiotic resumption (per meiotic stage) were assessed by ANOVA followed by a Tukey's Multiple Comparison Test, p<0.001. Percentages data were transformed (arcsine) before performing statistical analysis.
# [6] = tested on: cumulus-enclosed oocytes from early antral follicles; assay: Developmental competence after capacitation culture with CNP or Cilostamide, IVM and IVF (Example 3); details: 48 hours capacitation culture, IVM with EGF, IVF
# Description: Immature cumulus-oocyte complexes were isolated from early antral follicles (from unstimulated 19-20 day-old mice). COCs were placed in basal culture medium for a period of 48 hours in presence of either CNP or Cilostamide (PDE3-Inhibitor); similar to example 2.
# Following the capacitation culture, COCs were matured in presence of Epidermal growth factor (EGF) and in-vitro fertilized. Post fertilization embryo development was evaluated.
# Acquisition of oocyte competence under each condition was evaluated by their capacity to mature, fertilize (2-cell rate) and to produce good quality blastocyst (by day 5 of embryo culture).
# Differences in the rate of fertilization and blastocyst formation between CNP and Cilostamide groups were assessed by chi-square.
# [7] = 1 nM, 10 nM, 50 nM and 100 nM, 18 hours
substance,measurement,setting,value
"C-type natriuretic peptide (GLSKGCFGLKLDRIGSMSGLGC; ends and bridges not checked; cysteine pairing not given here; UniProt P23582 105-126, looked up) [CNP-22, 22 amino acid C-type natriuretic peptide, obtained from Phoenix Europe]",oocytes maintained in meiotic arrest,"Immature COCs; 1 nM, 10 nM, 25 nM, or 50 nM CNP, oocytes from the smallest size of follicles",~100%
same,GV rate,"Immature COCs; 25 nM CNP alone, 48 hours",26%
same,maintenance of meiotic arrest in immature COCs,"Immature COCs; CNP-22 alone, culture up to 48 hours (data not shown)",can maintain meiotic arrest for 24 hours but not for 48 hours
same,GV rate at the end of culture,"Pre-ovulatory COCs [1]; 1 nM CNP-22, 18 hours",48%
same,GV rate at the end of culture,"Pre-ovulatory COCs [1]; 10 nM CNP-22, 18 hours",93%
same,GV rate at the end of culture,"Pre-ovulatory COCs [1]; 100 nM CNP-22, 18 hours",96%
same,time meiotic arrest is maintained,Pre-ovulatory COCs [1]; pre-ovulatory COCs,at least 24 hours
same,PB rate,Pre-ovulatory COCs [2]; 1 nM CNP-22 with 4 ng/mL EGF,92%
same,PB rate,Pre-ovulatory COCs [2]; 10 nM CNP-22 with 4 ng/mL EGF,35%
same,GVBDs induced,"Pre-ovulatory COCs [2]; 25 nM CNP-22, 4 ng/mL EGF, 2 to 6 hours",≤ 11%
same,occurrence of PB oocytes,"Pre-ovulatory COCs [2]; 25 nM CNP-22, 4 ng/mL EGF, 24 hours",93%
same,PB rate,Pre-ovulatory COCs [2]; 100 nM CNP-22 with 4 ng/mL EGF,15%
same,delay of EGFR-induced meiotic resumption vs control,Pre-ovulatory COCs [2]; COCs kept under meiotic arrest by CNP,6 h
same,percentage of oocytes at the GVBD-stage vs control,"Preovulatory COCs [3]; 0.1 nM to 1 μM, 18 hours",No significant differences
same,maintaining oocytes arrested at the GV stage,"Preovulatory COCs [3]; 0.1 nM, 18 hours",suboptimal
same,oocytes in meiotic arrest (GV rate),"Preovulatory COCs [3]; 1 nM CNP-22, 18 hours",80%
same,oocytes extruding the first polar body (PB rate),Preovulatory COCs [3]; [7],low proportion or lack
same,oocytes in meiotic arrest (GV rate),"Preovulatory COCs [3]; 10 nM CNP-22, 18 hours",98%
same,oocytes in meiotic arrest (GV rate),"Preovulatory COCs [3]; 50 nM CNP-22, 18 hours",94%
same,oocytes in meiotic arrest (GV rate),"Preovulatory COCs [3]; 100 nM CNP-22, 18 hours",87%
same,maintaining oocytes arrested at the GV stage,"Preovulatory COCs [3]; 1 μM, 18 hours",suboptimal
same,rate of meiotic arrest in preovulatory oocytes,Preovulatory COCs [3]; dose interval 1 nM to 100 nM,above 80%
same,transzonal projections / connectivity between oocytes and cumulus cells,[4],full with transzonal projections; also recorded: kept better the connectivity between oocytes and cumulus cells
same,oocytes under meiotic arrest (GV rate),"Preovulatory COCs [5]; 25 nM CNP-22 positive control, 18 hours",75%
same,"fertilization rate, CNP vs Cilostamide",[6],no difference
same,"blastocyst formed per fertilized egg, CNP vs Cilostamide",[6]; day 5,significantly higher
"CNP-53: CNP analogue; endogenous form of C-type natriuretic peptide containing a 53-amino acid sequence (DLRVDTKSRAAWARLLQEHPNARKYKGANKKGLSKGCFGLKLDRIGSMSGLGC; ends and bridges not checked; cysteine pairing not given here; UniProt P23582 74-126, looked up)",percentage of oocytes at the GVBD-stage vs control,"Preovulatory COCs [5]; 0.1 nM to 1 μM, 18 hours",No significant differences
same,maintaining oocytes arrested at the GV stage,"Preovulatory COCs [5]; 0.1 nM, 18 hours",suboptimal
same,oocytes under meiotic arrest (GV rate),"Preovulatory COCs [5]; 1 nM CNP-53, 18 hours",66%
same,proportion of oocytes extruding the first polar body vs control without CNP,Preovulatory COCs [5]; [7],significant different
same,oocytes under meiotic arrest (GV rate),"Preovulatory COCs [5]; 10 nM CNP-53, 18 hours",98%
same,oocytes under meiotic arrest (GV rate),"Preovulatory COCs [5]; 50 nM CNP-53, 18 hours",72%
same,oocytes under meiotic arrest (GV rate),"Preovulatory COCs [5]; 100 nM CNP-53, 18 hours",69%
same,maintaining oocytes arrested at the GV stage,"Preovulatory COCs [5]; 1 μM, 18 hours",suboptimal
